Laboratory results reported in patent EP0703239A1, “Aminomethylphosphonic and aminomethylphosphinic acids derivatives and their use in the treatment of degenerative articular diseases” (priority 1994, dated 1996).
Where a name gives a salt, the structure may show the parent alone. Read-outs that look alike come from different tables or passages of the source.

Experiments:
Rattenlebermikrosomen = test: Inhibition of microsomal lipid peroxidation (malondialdehyde/thiobarbituric acid); type: biochemical, Ratte; details: rat liver microsomes, FeSO₄ start, 10 min 37°C; read-out: IC50 Mikrosomale Lipidperoxidation
Experimental: 4. Hemmung der Mikrosomalen Lipidperoxidation […]
Alle Schritte werden bei 0°C durchgeführt. Die Leber einer Ratte wird, um alles Hämoglobin zu entfernen, mit 0,9 % NaCl-Lösung gründlich gespült. Die grob zerkleinerte Leber wird dann in 10 mM Tris/HCl pH 7,4; 250 mM Saccharose (10 ml Puffer/g Leber) gepottert. Zunächst wird 5 Minuten bei 600xg zentrifugiert. Der Überstand wird dann 10 min bei 12000xg zentrifugiert und wird mit festem CaCl₂ (117,6 mg/100 ml) auf eine Konzentration von 8 mM eingestellt. Durch Zentrifugieren bei 25000 xg (15 min) wird ein Mikrosomenniederschlag gewonnen. Dieser Niederschlag wird im gleichen Volumen Puffer (10 mM Tris/HCl pH 7,4; 150 mM KCl) rehomogenisiert und erneut 15 min bei 25000 xg zentrifugiert.
Ein Testansatz besteht aus 20 µl Mikrosomen (100 mg/ml), vgl. oben, gelöst in Puffer (250 mM Tris/HCl pH 6,6, 750 mM KCl), 10 µl 50 mM MgCl₂, 10 µl 200 mM Isocitronensäure, 10 µl 4mM NADP (3,028 mg/ml Wasser), 10 µl 25 mM Niacinamid, 10 µl Isocitratdehydrogenase (1:100 verdünnt) und 20 µl Wasser oder Testsubstanz. Gestartet wird die Reaktion mit 10 µl 0,25 mM FeSO₄. Die Inkubation dauert 10 Minuten und erfolgt bei 37°C. Gestoppt wird mit 500 µl eiskalter 20 %iger Trichloressigsäure. Entstandenes Malondialdehyd wird durch Zugabe von 500 µl 0,67 %iger Thiobarbitursäure und 30 Minuten Inkubation bei 90°C in eine pinkfarbene Verbindung überführt, die bei 532 nm gemessen wird. Die Extinktion im Kontrollansatz ohne Prüfpräparat wird auf 0 % Hemmung gesetzt, während das völlige Verschwinden des Signals 100 % Hemmung bedeutet.

TNF-alpha = test: LPS-stimulated interleukin release from human mononuclear cells, ELISA (TNF-alpha); type: cell-based; details: 10 µmol/l, 20-22 h, read-out: % Hemmung der Interleukin-Freisetzung
Experimental: (§1) 5. Freisetzung von Interleukinen (insbesondere IL-1β) aus humanen mononuklearen Zellen
(§2) Die erfindungsgemäßen Verbindungen haben eine starke Hemmwirkung auf die Freisetzung von Interleukinen aus Humanzellen. Dies ist von großer pharmakologischer Bedeutung weil Interleukine die unerwünschte Degradation der Knorpelmatrix auslösen können.
(§3) 10 ml Humanblut, stabilisiert mit 1 ml 3,8 %iger Natriumcitrat-Lösung, werden mit 10 ml PM16 (Serva, Heidelberg) verdünnt und mit 15 ml Lymphoprep (Dr. Molter GmbH, Heidelberg) unterschichtet. Die Proben werden 40 Minuten bei 400 xg (1600 rpm Minifuge 2, Heraeus, Osterode) zentrifugiert (Raumtemperatur). Die mononuklearen Zellen sind als weißer Ring an der Grenze Lymphoprep/Plasma sichtbar. Dieser Ring wird mit einer Spritze vorsichtig entnommen, mit dem gleichen Volumen PM16 verdünnt und 10 Minuten bei 400 xg zentrifugiert. Der Niederschlag wird mit ∼ 10 ml RPMI 1640 (+ 300 mg/l L-Glutamin, Gibco, Eggenstein) gewaschen. Nach Resuspendieren der Zellen in ∼ 1 ml RPMI 1640 (+ 300 mg/l L-Glutamin, + 25 mM HEPES, + 100 µg/ml Streptomycin, + 100 µg/ml Penicillin) wird die Zelldichte mit einem Coulter Counter JT (Coulter Diagnostics) bestimmt und auf 5 * 10⁶/ml eingestellt. Die Zellen bestehen typischerweise aus 90 % Lymphozyten und 10 % Monozyten.
(§4) 230 µl mononukleare Zellen werden mit 10 µl Testsubstanz (10 µM in DMSO/Wasser 1/10) und 10 µl Lipopolysaccharide (500 µg gelöst in 1 ml Dimethylsulfoxid (DMSO) und vor Testbeginn 1/10 mit Wasser verdünnt, von Salmonella abortus equi, Sigma, Deisenhofen) 20-22 Stunden bei 37°C; 5 % CO₂ inkubiert. Die Proben werden in einem Eisbad auf 0°C abgekühlt und in einer Sigma-Zentrifuge zentrifugiert (2 Minuten; 2000 rpm). Aliquote des Überstandes werden mit einem kommerziell erhältlichen ELISA (Biermann, Bad Nauheim) bestimmt.

Chondrozyten [1] = test: IL-1-induced chondrocytic chondrolysis in chondrocyte agarose culture, 35S-sulfate incorporation; details: agarose cell culture with 5 u/ml human rec. IL-1 alpha; factor relative to IL-1 treated control
Chondrozyten [2] = test: Stimulation of cartilage matrix (proteoglycan) synthesis in chondrocyte agarose culture, 35S-sulfate incorporation; type: cell-based, Rinder; details: for fold induction at 10 µM: Chondrocyte, read-out: Stimulationsfaktor der Proteoglykansynthese
From the text: 1. Wirksamkeit in der Synthese-Stimulierung von Knorpel-Matrix, Prüfung in der Chondrozyten-Kultur
Zellen: Den Fußgelenken frisch geschlachteter Rinder werden der hyaline Knorpel entnommen, mit Pronase (Boehringer Mannheim) und Collagenase (Sigma), die native Matrix enzymatisch abgebaut, und die Chondrozyten in 1 %iger "low melting Agarose" in 24er Multiwell-Schalen in einer Zelldichte von 4 x 10⁶ pro well ausplattiert.
Medium: Komplettes Medium enthält HAM's F12 (Biochrom KG, Berlin) und 10 % foetales Kälberserum (Boehringer Mannheim), die Testsubstanz wird in Medium gelöst, üblicherweise in einer Konzentration von 10⁻⁵ M zugegeben und bei jedem Mediumwechsel erneut zugefügt.
Versuchsdurchführung: Die Behandlung erfolgt vom dritten bis zehnten Tag der Primärkultur, am 9. […] Die dissoziative Extraktion der Proteoglykane aus der Agarose-Schicht wird mit 8M Guanidinium-Hydrochlorid und beigefügten Proteinase-Inhibitoren (Sigma) unter Schütteln bei 4° C über 24 h durchgeführt. Der Überstand wird nach Zentrifugation über eine PD 10 ®Sephadex G 25 Säule in freies und inkorporiertes Sulfat getrennt, dessen Aktivität nach Aliquotierung im β-Szintillationscounter gemessen wird.
Auswertung: Der Parameter für die Matrixproduktion der Chondrozyten ist die Menge synthetisierter Proteoglykane, gemessen als Sulfatinkorporation in cpm. Aus vier Wells pro Gruppe wird der Mittelwert errechnet. Dieser wird durch den Mittelwert der unbehandelten Kontrolle dividiert, und ergibt somit einen Stimulationsfaktor, der bei Stimulation der Matrixsynthese größer 1 ist, bei Hemmung derselben durch Substanzwirkung kleiner 1, und bei unveränderter Matrixsynthese gleich 1 ist.
Als Standard wird Diacerein eingesetzt, das unter dem Markennamen "Artodar" von der Firma Proter bzw. […] Tabelle II

IL-1alpha = test: LPS-stimulated interleukin release from human mononuclear cells, ELISA (IL-1alpha); type: cell-based; details: 10 µmol/l, 20-22 h, read-out: % Hemmung der Interleukin-Freisetzung
Experimental: as §1, §2, §3, §4

[3] = system: Matrix Metalloproteasen (MMP); test: Inhibition of matrix metalloproteases from supernatant of PMA-induced synoviocytes, fluorogenic substrate; type: biochemical, Kaninchen
From the text: 3. Inhibierung von Matrix Metalloproteasen (MMP)
Die erfindungsgemäßen Verbindungen zeigten deutliche inhibitorische Wirkungen auf proteolytische Enzyme, die sogenannten Matrix Metalloproteasen. Dies ist von großer Bedeutung, weil diese dem Fachmann an sich bekannten Enzyme am proteolytischen Abbau der intakten Knorpelmatrix entscheidend beteiligt sind.
Kaninchen Synoviocyten (HIG-82; ATCC, Rockville, Maryland, USA) werden in Nährmedium HAM'S F12 (Sigma, Deisenhofen, Deutschland, Katalog Nr. N-6760) mit 10 % fötalem Rinder Serum (Sigma, Deisenhofen, Deutschland, Katalog Nr. F-2442), zusammen mit Penicillin 100 U/ml sowie Streptomycin 100 µg/ml, kultiviert. Nach konfluentem Zellwachstum wird die MMP Expression in serumfreiem HAM'S F12 durch Zugabe von 0,3 µmol/l Phorbol-12-Myristat-13-Acetat induziert. Nach 20 h Inkubationszeit bei 37°C wird der Überstand abgenommen.
Der Überstand wird mit Trypsin (5 µg/ml) aktiviert. Nach 15 Minuten (min) bei 37°C wird die Aktivierung durch Zugabe von 1 mmol/l Phenylmethylsulfonylfluorid (PMSF) beendet und für weitere 10 min nachinkubiert. Das Gesamtvolumen des Ansatzes beträgt 210 µl.
Messung der MMP Aktivität (Lit.: C.G. Knight et al.; FEBS Lett. 296, 263 (1992)):
20 µl des obengenannten Überstandes werden 1:10 verdünnt, und mit 240 µl Puffer (0,1 Tris/HCl pH 7,5; 0,1 M NaCl; 0,01 M CaCl₂; 0,05 % Brij) gemischt. Die Prüfsubstanz wird in der angegebenen Konzentration (s. Tabelle) zugegeben. Nach einer Inkubationszeit von 15 min wird die Reaktion durch Zugabe von 20 µmol/l Fluoreszenz-Substanz ((7-Methoxycoumarin-4-yl)acetyl-pro-Leu-Gly-Leu-[3-(2',4'-dinitrophenyl)-L-2,3-diaminopropionyl]-Ala-Arg-NH₂; Bachem, Heidelberg, Deutschland, Kat. Nr.: M-1895) gestartet. Die Reaktion wird nach 30 min durch Zugabe von 10 mmol/l EDTA beendet. Das Gesamtvolumen des Ansatzes beträgt 320 µl. Als Meßparameter dienen die Fluoreszenzintensitäten bei λex: 328 nm und […]. Um die mögliche Eigenfluoreszens der Prüfsubstanzen zu berücksichtigen, werden die Fluoreszenzintensitäten von Parallel-Messungen ohne Substrat von den Messwerten mit Substrat abgezogen. Alle Operationen erfolgen bei 20°C. Im Kontrollexperiment ohne Hemmstoff wird die Fluoreszenz entsprechen 0 % Hemmung gesetzt, während völlige Auslöschung der Fluoreszenz 100 % Hemmung bedeutet.

IL-1beta = test: LPS-stimulated interleukin release from human mononuclear cells, ELISA (IL-1beta); type: cell-based; details: 10 µmol/l, 20-22 h, read-out: % Hemmung der Interleukin-Freisetzung
Experimental: as §1, §2, §3, §4

[4] = agarose cell culture, test substance usually 10⁻⁵ M, mean sulfate incorporation divided by untreated control (>1 = stimulation)

Row | Compound | IC50 (Rattenlebermikrosomen) | Stimulationsfaktor der Proteoglykansynthese (Chondrozyten [1]) | Hemmung der MMP ([3]; 30 µM) | inhibition at 10 µM (IL-1beta) | also measured
1 | CCOP(=O)(OCC)C(Nc1ncccn1)c1cc(C(C)(C)C)c(O)c(C(C)(C)C)c1 (stereo not shown) [Beispiel 80] | 2900 nM | 2,4 |  |  | inhibition at 10 µM (TNF-alpha): 21%
2 | CCCOP(=O)(OCCC)C(NCc1ccc2c(c1)OCO2)c1cc(C(C)(C)C)c(O)c(C(C)(C)C)c1 (stereo not shown) [Beispiel 2, 1-(3,4-Methylendioxybenzylamino)-1-(3,5-di-tert.butyl-4-hydroxy-phenyl)methanphosphonsäure-di-n-propylester-hydrochlorid] | 2300 nM | 4,3 |  |  | fold induction at 10 µM (Chondrozyten [2]; [4]): 1.2
3 | COP(=O)(OC)C(NC1CCCCC1)c1cc(C(C)(C)C)c(O)c(C(C)(C)C)c1 (stereo not shown) [Beispiel 7] | 2400 nM |  |  |  | inhibition at 10 µM (IL-1alpha): 21%
4 | 1-(4-Chloranilino)-1-(3,5-di-tert.butyl-4-hydroxy-phenyl)-methanphosphonsäurediethylester [Beispiel 1] | 2430 nM | 1,5 |  |  | Stimulationsfaktor der Proteoglykansynthese (Chondrozyten [2]; agarose cell culture, test substance usually 10⁻⁵ M, mean sulfate incorporation divided by untreated control (>1 = stimulation), 10 µM): 1,4
5 | CCCCOP(=O)(OCCCC)C(Nc1ccc2c(c1)OCO2)c1cc(C(C)(C)C)c(O)c(C(C)(C)C)c1 (stereo not shown) [Beispiel 63] | 240 nM | 1,5 | 60% | 31% | Hemmung der MMP ([3]; 10 µM): 26%
6 | CCOP(=O)(OCC)C(Nc1ccc(NC(c2cc(C(C)(C)C)c(O)c(C(C)(C)C)c2)P(=O)(OCC)OCC)cc1)c1cc(C(C)(C)C)c(O)c(C(C)(C)C)c1 (stereo not shown) [Beispiel 74] | 1250 nM | 3,8 | 47% |  | Hemmung der MMP ([3]; 10 µM): 20%; Hemmung der MMP ([3]; 50 µM): 74%
7 | CCCCNC(c1cc(C(C)(C)C)c(O)c(C(C)(C)C)c1)P(=O)(OCC)OCC (stereo not shown) [Beispiel 6] | 2250 nM | 1,4 |  |  | fold induction at 10 µM (Chondrozyten [2]): 1.2
8 | CCCCOP(=O)(OCCCC)C(Nc1ccc(Cl)cc1)c1cc(C(C)(C)C)c(O)c(C(C)(C)C)c1 (stereo not shown) [Beispiel 45] | 6150 nM | 1,2 |  |  | inhibition at 10 µM (IL-1alpha): 22%
9 | CCCCOP(=O)(OCCCC)C(NCc1ccc2c(c1)OCO2)c1cc(C(C)(C)C)c(O)c(C(C)(C)C)c1 (stereo not shown) [Beispiel 31] | 2180 nM | 1,7 |  | 32% | 
10 | CCOP(=O)(OCC)C(c1cc(C(C)(C)C)c(O)c(C(C)(C)C)c1)N1CCN(c2ccccc2)CC1 (stereo not shown) [Beispiel 25] | 2450 nM |  |  |  | inhibition at 10 µM (IL-1alpha): 60%; inhibition at 10 µM (TNF-alpha): 36%
11 | CC(C)(C)c1cc(C(Nc2ccc3c(c2)OCO3)[PH](=O)O)cc(C(C)(C)C)c1O (stereo not shown) [Beispiel 3] | 790 nM | 1,3 | 20% |  | Hemmung der MMP ([3]; 10 µM): 3%; Hemmung der MMP ([3]; 100 µM): 83%
12 | CCOP(=O)(OCC)C(c1cc(C(C)(C)C)c(O)c(C(C)(C)C)c1)N(C)c1ccccc1 (stereo not shown) [Beispiel 53] | 2030 nM | 1,7 | 11% | 53% | Hemmung der MMP ([3]; 100 µM): 25%
13 | COP(=O)(OC)C(Nc1ccc2c(c1)OCO2)c1cc(C(C)(C)C)c(O)c(C(C)(C)C)c1 (stereo not shown) [Beispiel 60] | 710 nM | 1,4 |  |  | inhibition at 10 µM (TNF-alpha): 24%
14 | CCOP(=O)(OCC)C(Nc1ccc2c(c1)OCO2)c1cc(C(C)(C)C)c(O)c(C(C)(C)C)c1 (stereo not shown) [Beispiel 61] |  | 1,3 |  | 24% | fold induction at 10 µM (Chondrozyten [2]): 2.9
15 | CCOP(=O)(OCC)C(Nc1ccc(C=CC(=O)OC)cc1)c1cc(C(C)(C)C)c(O)c(C(C)(C)C)c1 (stereo not shown) [Beispiel 67] | 2220 nM | 1,9 |  | 26% | 
16 | CCOP(C)(=O)C(Nc1ccc2c(c1)OCO2)c1cc(C(C)(C)C)c(O)c(C(C)(C)C)c1 (stereo not shown) [Beispiel 59] |  |  | 43% |  | Hemmung der MMP ([3]; 10 µM): 19%
17 | CCCOP(=O)(OCCC)C(Nc1ccc2c(c1)OCO2)c1cc(C(C)(C)C)c(O)c(C(C)(C)C)c1 (stereo not shown) [Beispiel 62] | 240 nM | 1,2 | 68% | 46% | fold induction at 10 µM (Chondrozyten [2]; [4]): 1.2; Hemmung der MMP ([3]; 10 µM): 23%; Hemmung der MMP ([3]; 100 µM): 83%
